For orientation: melting point means the temperature, or range, at which the solid turns liquid. The IC50 is the concentration at which inhibition is half-maximal.

System in one data set: not given
Assay: not given
Details: not given
In the case of `Cc1ccc(CC(C(=O)c2ccccc2)N2CCCCC2)cc1` (centres unmarked), the melting point lay within 71 to 72 °C.

Compound `O=C(Cc1ccc(Cl)c(Cl)c1)c1ccc(Cl)cc1` [Example 4, (4-Chlorophenyl)-(3,4-dichlorophenylmethyl)-ketone] registered a melting point of 99 to 103 °C.

Compound `O=C(Cn1cnc2ccccc21)c1ccc(Cl)cc1Cl` [Example 7, (Benzimidazol-1-ylmethyl)-(2,4-dichlorophenyl)-ketone] registered a melting point of 130 to 132 °C. Same read-out and setting: next, `O=C(c1cccnc1)C(Cc1ccc(F)cc1)c1ccccc1` (stereo not drawn) [Example 10, [α-(4-Fluorobenzyl)benzyl]-(pyrid-3-yl)-ketone]: 100 to 102 °C; `O=C(c1ccccc1)C(Cc1ccc(Cl)cc1)c1cccnn1` (centres unmarked) [Example 13, [2-(4-Chlorophenyl)-1-(pyridazin-3yl)ethyl]-(phenyl)-ketone]: 140 to 142 °C; `O=C(CCc1ccc(F)cc1)c1ccc(C(F)(F)F)cc1` [Example 19, (4-Fluorophenethyl)-(4-trifluoromethylphenyl)-ketone]: 66 to 67 °C. Take `O=C(CS(=O)(=O)c1ccccc1)c1ccccn1` [Example 100, (Phenylsulphonylmethyl)-(pyrid-2-yl)-ketone]: the melting point lay in the range of 101 to 103 °C.

Compound `O=C(Cc1ccc(Br)cc1)c1ccc(Cl)cc1` [RE 3, (4-Bromobenzyl)-(4-chlorophenyl)-ketone] came in with a melting point of 125 to 126 °C. Still for that read-out and setting: the result for `O=C(Cc1ccc(Cl)cc1)c1ccc(Br)cc1` [Reference Example 3, (4-Bromophenyl)-(4-chlorobenzyl)-ketone] reads 128 to 129 °C. `COc1ccc(C(=O)Cc2ccccc2)cc1` [Reference Example 5, (4-Methoxyphenyl)-(benzyl)-ketone]: the melting point is 68 to 69 °C. In turn, `Cc1ccc(C(=O)Cc2ccccc2)cc1` [Reference Example 11, (Benzyl)-(4-methylphenyl)-ketone] came in with a melting point of 107 to 111 °C. The compound `O=C(c1ccc(Cl)cc1)C(Cn1cncn1)c1ccc(Cl)cc1` (stereo not drawn) [Reference Example 16, (4-Chlorophenyl)-[α-(1,2,4-triazol-1-ylmethyl)-4-chlorobenzyl]-ketone] registered a melting point of 126 to 128 °C. The same measure, in the same setting: the result for `Cc1ccc(C(=O)CCc2ccc(N3CCN(c4ccncc4)CC3)cc2)cc1` [Reference Example 55, {4-[1-(Pyrid-4-yl)piperazin-4-yl]phenethyl}-(4-methylphenyl)-ketone] reads 114 to 115 °C.

The subject of the next data set is Pancreatic islets.
Assay: not given
The settings on record: pancreatic islets (Davani B et al. 2000); cited from earlier work.
On to `CC1(C)[C@@H](OC(=O)CCC(=O)O)CC[C@]2(C)[C@H]3C(=O)C=C4[C@@H]5C[C@@](C)(C(=O)O)CC[C@]5(C)CC[C@@]4(C)[C@]3(C)CC[C@@H]12` [carbenoxolone], for which the “effects of 11-dehydocorticosterone on insulin release” value was “can inhibit the effects of 11-dehydocorticosterone on insulin release”.

For another data set, the target named is T1, human 11βHSD1 enzyme (Homo sapiens, UniProt P28845).
T1 construct: a construct containing full-length human 11βHSD1 enzyme (in pCMVHyg); expressed in transfected cells
T1 sequence (P28845 whole entry): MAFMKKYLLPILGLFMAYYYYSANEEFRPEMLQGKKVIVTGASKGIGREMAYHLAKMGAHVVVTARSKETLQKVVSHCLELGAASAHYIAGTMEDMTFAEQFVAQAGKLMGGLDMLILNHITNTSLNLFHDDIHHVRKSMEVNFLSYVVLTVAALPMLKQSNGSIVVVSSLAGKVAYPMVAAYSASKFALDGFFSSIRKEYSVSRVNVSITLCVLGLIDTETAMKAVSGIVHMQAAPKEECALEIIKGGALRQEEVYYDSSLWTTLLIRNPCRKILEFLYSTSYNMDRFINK
In words: HeLa GRE4-βGal/11βHSD1 cell reporter assay (cortisone to cortisol, β-galactosidase readout). The format is cell-based. The settings on record: HeLa GRE4-βGal/11βHSD1 cells, cortisone 1 μM, overnight incubation, absorbance at 570 nm. An excerpt:
HeLa cells (human cervical carcinoma derived cells) were stably transfected with a construct containing four copies of the glucocorticoid response element (GRE) linked to a beta-galactosidase reporter gene (3 kb lac Z gene derived from pSV-B-galactosidase). These cells were then further stably transfected with a construct containing full-length human 11βHSD1 enzyme (in pCMVHyg) to create GRE4-βGal/11βHSD1 cells. The principal of the assay is as follows. Cortisone is freely taken up by the cells and is converted to cortisol by 11βHSD1 oxo-reductase activity and cortisol (but not cortisone) binds to and activates the glucocorticoid receptor. Activated glucocorticoid receptor then binds to the GRE and initiates transcription and translation of β-galactosidase. Enzyme activity can then be assayed with high sensitivity by colourimetric assay.
Cells were routinely cultured in DMEM (Invitrogen, Paisley, Renfrewshire, UK) containing 10% foetal calf serum (LabTech), 1% glutamine (Invitrogen), 1% penicillin & streptomycin (Invitrogen), 0.5 mg/ml G418 (Invitrogen) & 0.5 mg/ml hygromycin (Boehringer). Assay media was phenol red free-DMEM containing 1% glutamine, 1% penicillin & streptomycin.
Compounds (1 mM) to be tested were dissolved in dimethyl sulphoxide (DMSO) and serially diluted into assay media containing […]. […]
A cocktail (25 μl) consisting of 10× Z-buffer (600 mM Na2HPO4, 400 mM NaH2PO4.2H2O, 100 mM KCl, 10 MM MgSO4.7H2O, 500 mM β-mercaptoethanol, pH 7.0), SDS (0.2%), chlorophenol red-β-D-galactopyranoside (5 mM, Roche Diagnostics) was added per well and plates incubated at 37° C. for 3-4 hours. β-Galactosidase activity was indicated by a yellow to red colour change (absorbance at 570 nm) measured using a Tecan Spectrafluor Ultra.
The calculation of median inhibitory concentration (IC50) values for the inhibitors was performed using Origin 6.0 (Microcal Software, Northampton Mass. USA). Dose response curves for each inhibitor were plotted as OD units at each inhibitor concentration with relation to a maximum signal (cortisone, no compound) and IC50 values calculated. […]
Background: In a reporter assay the amount or activity of a reporter protein is the signal.
Compound `Cc1ccc(C(=O)Cc2ccsc2)cc1` [Example 3, (Thien-3-ylmethyl)-(4-methylphenyl)-ketone] returned a concentration for half-maximal inhibition (IC50) of 0.0768 µM. Same read-out and setting: the result for `O=C(CS(=O)(=O)N1CCCC1)c1ccc(F)cc1` [Example 79, (4-Fluorophenyl)-(pyrrolidin-1-ylsulphonylmethyl)-ketone] reads 0.0935 µM; that for `CC(=O)Nc1ccc(OCC(=O)c2ccc(Cl)cc2)cc1` [Example 155, (4-Chlorophenyl)-(4-acetylaminophenoxymethyl)-ketone], 0.153 µM.

The values are drawn from patent US20050272036A1, “Ketones” (priority 2002, published 2005).
